Reference: patent publication US12351559B2 (Biohaven Therapeutics Ltd., priority 2014, dated 2025)

Target: T1, Kv7.2/7.3 (Homo sapiens, UniProt O43525+O43526)
T1 construct: host or cells: HEK cells, tetracycline-inducible expression
Experiment: Kv7.2/7.3 activation assay, QPatch planar patch-clamp, single concentration screen
Type: cell-based
Design: key: <1.2-fold increase over baseline (−); +/−: as a range from <1.2-fold increase over baseline (−) up to >6-fold increase over baseline (+++); as a range from <1.2-fold increase over baseline (−) up to >6-fold increase over baseline (+++); as a range from <1.2-fold increase over baseline (−) up to >6-fold increase over baseline (+++); >6-fold increase over baseline (+++)
Conditions: Kv7.2/Kv7.3 co-expressing HEK cells, compound 3 μM, steady-state current at end of 2 s pulse to −30 mV
Method: The ability of compounds to potentiate K-currents in Kv7.2/7.3 containing HEK cells was assessed using planar patch-clamp on the QPatch automated screening platform.
Cell Line: The hKv7.2/7.3 cell line was obtained from Chantest (Cleveland, OH 44128) cat. #CT6147. These HEK cells will express the Kv7.2/7.3 ion channels when induced.
Cell Culture: Cells were maintained in a media containing DMEM/F12; 50/50 (GIBCO cat. #11330), 10% Fetal Bovine Serum (FBS) (GIBCO cat. #26140), 100 units/mL Penicillin-Streptomycin (GIBCO cat. #15140), 0.005 mg/mL Blasticidin (INVIVOGEN cat. #ant-bl-1), 0.5 mg/mL Geneticin (GIBCO cat. #10131), 0.1 mg/ml Zeocin (GIBCO cat. #R25001). Cells used in the electrophysiology assay were maintained in a media without Blasticidin, Geneticin and Zeocin for 2 days and channel expression was induced by adding tetracycline (BIOLINE cat. #BIO-87030) at a final concentration of 1 mg/mL. Cells were grown in T-175 flask to ˜75% confluency. Currents were recorded 24 hours after channel induction.
Compound Plates: Test compounds were prepared by performing serial dilutions on a Biomek NX^P (BECKMAN COULTER). Final dilutions were made in external recording solution with a final DMSO concentration of 0.1% DMSO. For single concentration screens each plate had 10 μM retigabine as a positive control and 0.1% DMSO as a negative control.
Electrophysiology: On the day of the experiment cells were washed with Hank's Balanced Salt Solution (HBBS) (GIBCO cat. #14175) and harvested with Tryple (GIBCO cat. #12604). Cells were then centrifuged at 2000 rpm for 5 minutes and resuspended in CHO-S-SFM (GIBCO cat. #12052) at ˜3×10^6 cells/mL. Cells were stirred for 30 minutes before experiments were started. External recording solution contained (in mM): NaCl (145), KCl (4), CaCl2 (2), MgCl2 (1), HEPES (10) and Glucose (10); pH was adjusted to 7.4 with NaOH and the osmolarity was adjusted to 300-305 mOsM with sucrose if necessary. Internal solution contained (in mM): KCl (125), KF (10), EGTA (5), Na2ATP (5), MgCl2 (3.2), HEPES (5); pH was adjusted to 7.2 with KOH and the osmolarity was adjusted to 298-302 mOsM with sucrose.
Potassium channel activity was measured on the QPatch HTX (Sophion Bioscience) using QPlates with 48-wells/plate. Each cell was taken as an independent experiment and only one compound was tested per well. Potassium channel activity was elicited by holding at −80 mV and stepping to −30 mV for 2 s followed by a 100 ms pulse to −120 mV.
Single concentration screen: Baseline conditions were obtained by recording 5 sweeps in the external solution only, this was repeated for three applications of the external solution. […] The steady-state current at the end of the 2 s pulse to −30 mV was measured to determine the fold increase from baseline.

| Compound | Kv7.2/7.3 Activity: increase in current over baseline |
| --- | --- |
| CC(C)c1ccc2nc(NC(=O)CC(C)(C)C)n(C3CCC3)c2c1 [Example 64, N-(1-cyclobutyl-6-isopropyl-1H-benzo[d]imidazol-2-yl)-3,3-dimethylbutanamide] | ++ |
| CC1(n2c(NC(=O)C[C@](C)(O)c3ccc(F)cc3)nc3ccc(C#N)cc32)CCC1 [Example 138, (S)-N-(6-cyano-1-(1-methylcyclobutyl)-1H-benzo[d]imidazol-2-yl)-3-(4-fluorophenyl)-3-hydroxybutanamide] | + |
| C[C@H](C(=O)Nc1nc2ccc(C#N)cc2n1C1CCC1)N(C)CC(F)(F)F [Example 22, (R)-N-(6-cyano-1-cyclobutyl-1H-benzo[d]imidazol-2-yl)-2-(methyl(2,2,2-trifluoroethyl)amino)propanamide] | +/− |
| CC(C)(C)CC(=O)Nc1nc2cccc(CO)c2n1C1CCC1 [Example 68, N-(1-cyclobutyl-7-(hydroxymethyl)-1H-benzo[d]imidazol-2-yl)-3,3-dimethylbutanamide] | + |
| CC(C)(C)CC(=O)Nc1nc2ccccc2n1-c1ccccc1 [Example 2, 3,3-dimethyl-N-(1-phenyl-1H-benzo[d]imidazol-2-yl)butanamide] | + |
| CC(C)(O)[C@H]1C[C@@H]1C(=O)Nc1nc2ccc(C(F)(F)F)cc2n1C1CCC1 [Example 41, (1S,2S)-N-(1-cyclobutyl-6-(trifluoromethyl)-1H-benzo[d]imidazol-2-yl)-2-(2-hydroxypropan-2-yl)cyclopropane-1-carboxamide] | +/− |
| Cc1cc2nc(NC(=O)C[C@](C)(O)c3ccccc3F)n(C3CCC3)c2cc1C#N [Example 126, (S)-N-(6-cyano-1-cyclobutyl-5-methyl-1H-benzo[d]imidazol-2-yl)-3-(2-fluorophenyl)-3-hydroxybutanamide] | ++ |
| C[C@H](C(=O)Nc1nc2ccc(C#N)cc2n1C1CCC1)[C@@](C)(O)c1ccccc1 [Example 18, (2S,3R)-N-(6-cyano-1-cyclobutyl-1H-benzo[d]imidazol-2-yl)-3-hydroxy-2-methyl-3-phenylbutanamide] | + |
| CC(C)(O)c1ccc2nc(NC(=O)[C@@H]3CC3(C)C)n(C3CCC3)c2c1 [Example 89, (R)-N-(1-cyclobutyl-6-(2-hydroxypropan-2-yl)-1H-benzo[d]imidazol-2-yl)-2,2-dimethylcyclopropane-1-carboxamide] | ++ |
| CC(C)(C)CC(=O)Nc1nc2ccc(C#N)cc2n1-c1ccc(F)cc1 [Example 31, N-(6-cyano-1-(4-fluorophenyl)-1H-benzo[d]imidazol-2-yl)-3,3-dimethylbutanamide] | + |
| O=C(CC1(O)CCC1)Nc1nc2ccc(C(F)(F)F)cc2n1-c1ccc(OC(F)(F)F)cc1 [Example 142, 2-(1-hydroxycyclobutyl)-N-(1-(4-(trifluoromethoxy)phenyl)-6-(trifluoromethyl)-1H-benzo[d]imidazol-2-yl)acetamide] | ++ |
| CC(C)[C@H](C)C(=O)Nc1nc2ccc(C#N)cc2n1C1CCC1 [Example 6, (S)-N-(6-cyano-1-cyclobutyl-1H-benzo[d]imidazol-2-yl)-2,3-dimethylbutanamide] | + |
| C[C@H](C(=O)Nc1nc2ccc(C#N)cc2n1C1CCC1)C(C)(C)O [Example 13, (S)-N-(6-cyano-1-cyclobutyl-1H-benzo[d]imidazol-2-yl)-3-hydroxy-2,3-dimethylbutanamide] | +/− |
| Cc1cc(-n2c(NC(=O)[C@@H](C)C(C)(C)C)nc3ccc(C(F)(F)F)cc32)on1 [Example 48, (S)-2,3,3-trimethyl-N-(1-(3-methylisoxazol-5-yl)-6-(trifluoromethyl)-1H-benzo[d]imidazol-2-yl)butanamide] | +++ (>6-fold increase over baseline (+++)) |
| Cc1cc2nc(NC(=O)C3CC(F)(F)C3)n(C(C)(C)C)c2cc1C#N [Example 129, N-(1-(tert-butyl)-6-cyano-5-methyl-1H-benzo[d]imidazol-2-yl)-3,3-difluorocyclobutane-1-carboxamide] | +/− |
| C[C@@](O)(CC(=O)Nc1nc2cc(C(F)(F)F)cc(F)c2n1C1CCC1)C(F)(F)F [Example 132, (R)-N-(1-cyclobutyl-7-fluoro-5-(trifluoromethyl)-1H-benzo[d]imidazol-2-yl)-4,4,4-trifluoro-3-hydroxy-3-methylbutanamide] | +/− |
| CC(C)(C)CC(=O)Nc1nc2ccc(Cl)cc2n1C1CCC1 [Example 60, N-(6-chloro-1-cyclobutyl-1H-benzo[d]imidazol-2-yl)-3,3-dimethylbutanamide] | + |
| C[C@H](C(=O)Nc1nc2ccc(C#N)cc2n1-c1ccc(F)cc1)C(C)(C)C [Example 71, (S)-N-(6-cyano-1-(4-fluorophenyl)-1H-benzo[d]imidazol-2-yl)-2,3,3-trimethylbutanamide] | + |
| CC1(n2c(NC(=O)C[C@](C)(O)c3ccccc3Cl)nc3ccc(C#N)cc32)CCC1 [Example 139, (S)-3-(2-chlorophenyl)-N-(6-cyano-1-(1-methylcyclobutyl)-1H-benzo[d]imidazol-2-yl)-3-hydroxybutanamide] | + |
| CC(C)(O)CC(=O)Nc1nc2ccc(C(F)(F)F)cc2n1-c1cc(F)cc(F)c1 [Example 136, N-(1-(3,5-difluorophenyl)-6-(trifluoromethyl)-1H-benzo[d]imidazol-2-yl)-3-hydroxy-3-methylbutanamide] | + |
| CC(O)c1ccc2nc(NC(=O)CC(C)(C)C)n(C3CCC3)c2c1 (stereo not drawn) [Example 55, N-(1-cyclobutyl-6-(1-hydroxyethyl)-1H-benzo[d]imidazol-2-yl)-3,3-dimethylbutanamide] | + |
| CC(C)(C(=O)Nc1nc2ccc(C#N)cc2n1C1CCC1)C(O)c1ccccc1 (stereo not drawn) [Example 72, N-(6-cyano-1-cyclobutyl-1H-benzo[d]imidazol-2-yl)-3-hydroxy-2,2-dimethyl-3-phenylpropanamide] | +/− |
| Cc1cc(-n2c(NC(=O)[C@@H](C)C(C)(C)C)nc3ccc(C#N)cc32)on1 [Example 49, (S)-N-(6-cyano-1-(3-methylisoxazol-5-yl)-1H-benzo[d]imidazol-2-yl)-2,3,3-trimethylbutanamide] | + |
| C[C@](O)(CC(=O)Nc1nc2ccc(Cl)cc2n1-c1ccc(F)cc1)c1ccccc1 [Example 107, (S)-N-(6-chloro-1-(4-fluorophenyl)-1H-benzo[d]imidazol-2-yl)-3-hydroxy-3-phenylbutanamide] | + |
| N#Cc1ccc2nc(NC(=O)C3CC(F)(F)C3)n(C3CCC3)c2c1 [Example 9, N-(6-cyano-1-cyclobutyl-1H-benzo[d]imidazol-2-yl)-3,3-difluorocyclobutane-1-carboxamide] | + |
| C[C@H](C(=O)Nc1nc2ccc(C#N)cc2n1C1CCC1)[C@](C)(O)c1ccccc1 [Example 19, (2S,3S)-N-(6-cyano-1-cyclobutyl-1H-benzo[d]imidazol-2-yl)-3-hydroxy-2-methyl-3-phenylbutanamide] | + |
| CN(C)C(CC(=O)Nc1nc2ccc(C#N)cc2n1C1CCC1)C(F)(F)F (stereo not drawn) [Example 24, N-(6-cyano-1-cyclobutyl-1H-benzo[d]imidazol-2-yl)-3-(dimethylamino)-4,4,4-trifluorobutanamide] | + |
